# Experimental data: patent US12589090B2, “Compounds and methods for the treatment of degenerative disorders” (Aquilus Pharmaceuticals, Inc., priority 2019, dated 2026)
# “Also recorded” adds a separate entry of the source.
# What was measured:
# SNL rats = experiment: Spinal nerve ligation (SNL) rat model, mechanical allodynia by von Frey paw withdrawal threshold (Example 17); type: in vivo, Sprague Dawley rats; settings: 160 mg/Kg PO once per day for 5 days, 60 min after dosing, vs. vehicle control, p<0.05
# Procedure: A total of 90 male Sprague Dawley rats (200-225 g) from Envigo (Indianapolis, IN) were used in the study. The 90 rats were assembled into four groups that would be orally dosed (PO) with vehicle, Gabapentin and Compound 118 as follows: • Group 1=Sham+Vehicle, n=20 rats • Group 2=SNL+Vehicle, n=40 rats • Group 3=SNL+Compound 118 (160 mg/Kg), n=20 rats • Group 4=SNL+Gabapentin (100 mg/Kg), n=10 rats
# Under general anesthesia with continuous inhalation of isoflurane, surgery was performed with aseptic procedures. The skin at the area of the lower lumber and sacral level of the rat was shaved and disinfected with betadine and alcohol. A left longitudinal incision at the level next to the vertebral column was made and the left paraspinal muscles were separated. The transverse process of L6 was removed and nearby connective tissue cleaned to expose L5 and L6 spinal nerves. After the nerves were isolated and clearly visualized, 4-0 silk threads were used to ligate the left L5. The muscles were sutured with 4-0 silk threads and the wound closed by staples. […] Each rat was monitored until awake and moving freely around the recovery chamber. […]
# The mechanical allodynia of the rodents were measured by applying von Frey (VF) filaments (Stoelting, Wood Dale, IL) of ascending bending force to the plantar surface of the hind paws, ipsilateral and contralateral to the surgical manipulation. […]
# [1] = system: TDP-43 overexpression in Drosophila motor neurons; experiment: TDP-43 Drosophila model of ALS, larval turning read-out (Example 23); type: in vivo; settings: 1 microMolar, TDP-43 (wild-type and G298S) overexpression, vs. DMSO vehicle
# Procedure: Procedure: UAS TDP-43 male Drosophila flies were crossed with D42-Gal4 female virgins on fly food containing either DMSO or 1% Compound 118 in dimethyl sulfoxide (DMSO). For DMSO controls, the same volume of DMSO as the corresponding Compound 118 concentration was added. Bromophenol blue was added to a final concentration of around 0.02% to ensure homogeneity. Crosses were made on drug food with three female virgins and two males in each vial and were maintained at 25° C. unless noted. The parents were discarded after 5-7 days and then the vials were screened for adult progeny with straight wings from Day 14 to Day 25. All adults were screened for TDP-43 expression by visualizing the YFP tag. Total number of pupae was counted on Day 25. Percent survival was calculated using the formula (total number of straight-winged adults/total number of pupae)×100. All experiments were performed in triplicate. Read-outs include larval turning assay and pupil lethality screen.
# TDP^WT=Wild-type TDP-43, TDP^G298S=Diseases associated G298S mutant expressed in motor neurons. […], ***p<0.001 as compared to DMSO as vehicle.
smiles,measurement,setting,value
"[2H]C([2H])([2H])c1ccc(C#Cc2ccc(S(=O)(=O)N[C@H](Cc3c[nH]c4ccccc34)C(=O)O)s2)cc1 [Compound 118, (R)-3-(1H-Indol-3-yl)-2-[5-(4-trideuteromethyl-phenylethynyl)-thiophene-2-sulfonylamino]-propionic acid-(D3, 98%)]","mechanical allodynia (ipsilateral paw withdrawal threshold, von Frey)",SNL rats,reduce mechanical allodynia in a statistical manner; also recorded: statistically significant decrease in mechanical allodynia
same,locomotive defects via larval turning times,[1],able to mitigate locomotive defects
